System: adult schizophrenia patients with a persistent inadequate response to their existing antipsychotic therapy
Assay: 6-week study of pimavanserin or placebo added to existing antipsychotic treatment: efficacy rating scales
Type: in vivo, human
Description: The effect of pimavanserin as an adjunctive treatment in adult schizophrenia patients with a persistent inadequate response (i.e., partial responders) to their existing antipsychotic therapy was tested. 396 patients with moderate-to-severe psychotic symptoms were randomized to receive either pimavanserin or placebo added to existing antipsychotic treatment. […] Dosages of background oral antipsychotics could not be changed within four weeks of screening and dosages of long-acting injectables (LAI) could not be changed within 16 weeks of screening. […] Patients were administered a daily dose of pimavanserin or a placebo for six weeks. The dose started at 20 mg and could be adjusted to 34 mg or 10 mg between weeks 1 and 3. The majority of patients (56%) completed the study at the highest dose level. Patients were evaluated at baseline and on a weekly basis according to the clinical rating scale Positive and Negative Symptom Scale (PANSS). The PANSS is a 30-item, 7-point rating system that was developed to cover a range of negative symptoms not adequately measured by the Brief Psychiatric Rating Scale. It has sections that specifically measure positive symptoms, negative symptoms, and general psychopathology in schizophrenic subjects. The PANSS is widely used in trials of antipsychotic drug treatment, and has been formally validated for such use. A subset of 5 of the PANSS factors, the […] factors, were also evaluated. Other clinical rating scales that were assessed were the Clinical Global Impression Scale (CGI), Personal and Social Performance Scale (PSP), drug attitude inventory (DAI-10), Karolinska Sleepiness Scale (KSS), Calgary Depression Scale for Schizophrenia (CDSS), 36-item Short Form Physical Health evaluation ([…]) and 36-item Short Form Mental Health evaluation […].

[1] = FAS population, W6, Missing as non-Rsp
[2] = Full Analysis Set, OC, Week 6, listed as PIM
[3] = Full Analysis Set, added to existing antipsychotic
[4] = Sensitivity: MI in FAS, ANCOVA, W6
[5] = Sensitivity: MI in RAND, ANCOVA, W6
[6] = Sensitivity: OC in PP, MMRM, W6

CC(C)COc1ccc(CNC(=O)N(Cc2ccc(F)cc2)C2CCN(C)CC2)cc1 [Pimavanserin, N-(4-Fluorophenylmethyl)-N-(1-methylpiperidin-4-yl)-N′-(4-(2-methylpropyloxy)phenylmethyl)carbamide]
CGI-I 1 or 2 Rsp, (%) [1]: (35.2) %
CGI-I 1 or 2 Rsp, Diff in % (PIM − PBO) [1]: 2.1%
PANSS >= 20% Rsp, (%) [1]: (56.5) %
PANSS >= 20% Rsp, Diff in % (PIM − PBO) [1]: 5.9%
PANSS >= 30% Rsp, (%) [1]: (36.8) %
PANSS >= 30% Rsp, Diff in % (PIM − PBO) [1]: 2.6%
CGI-I 1 or 2 Rsp, (%) (FAS population, W6, OC): (39.3) %
CGI-I 1 or 2 Rsp, Diff in % (PIM − PBO) (FAS population, W6, OC): 4.9%
CGI-I no Chg or Worsened, (%) (FAS population, W6, OC): (27.2) %
CGI-I no Chg or Worsened, Diff in % (PIM − PBO) (FAS population, W6, OC): −0.9%
PANSS >= 20% Rsp, (%) (FAS population, W6, OC): (63.0) %
PANSS >= 20% Rsp, Diff in % (PIM − PBO) (FAS population, W6, OC): 10.6%
PANSS >= 30% Rsp, (%) (FAS population, W6, OC): (41.0) %
PANSS >= 30% Rsp, Diff in % (PIM − PBO) (FAS population, W6, OC): 5.6%
CGI-S score, Change from Baseline to Week 6, Mean (SE) (Full Analysis Set): −0.8 (0.06)
PANSS Marder negative factor score, Change from Baseline to Week 6, Mean (SE) (Full Analysis Set): −3.3 (0.31)
PANSS Marder negative factor score, Week 6, Mean (SE) (Full Analysis Set): 19.2 (0.38)
PANSS negative symptoms scale sub-score, Change from Baseline to Week 6, Mean (SE) (Full Analysis Set): −2.8 (0.28)
PANSS negative symptoms scale sub-score, Week 6, Mean (SE) (Full Analysis Set): 20.3 (0.35)
CGI-S score, Diff in MMRM LSM (SE), pimavanserin − placebo (Full Analysis Set, OC, Week 6): −0.1 (0.08)
CGI-S score, Effect Size (Cohen's d) (Full Analysis Set, OC, Week 6): 0.200
PANSS Marder negative factor score, Diff in MMRM LSM (SE), pimavanserin − placebo (Full Analysis Set, OC, Week 6): −0.9 (0.41)
PANSS Marder negative factor score, Effect Size (Cohen's d) (Full Analysis Set, OC, Week 6): 0.218
PANSS negative symptoms scale sub-score, Diff in MMRM LSM (SE), pimavanserin − placebo (Full Analysis Set, OC, Week 6): −0.7 (0.37)
PANSS negative symptoms scale sub-score, Effect Size (Cohen's d) (Full Analysis Set, OC, Week 6): 0.206
PANSS total score, Diff in MMRM LSM (SE), pimavanserin − placebo (Full Analysis Set, OC, Week 6): −2.1 (1.24)
PANSS total score, Effect Size (Cohen's d) (Full Analysis Set, OC, Week 6): 0.173
CGI-S score, Diff in MMRM LSM (SE), pimavanserin − placebo [2]: −0.1
CGI-S score, Effect Size (Cohen's d) [2]: 0.20
PANSS Marder negative factor score, Diff in MMRM LSM (SE), pimavanserin − placebo [2]: −0.9
PANSS Marder negative factor score, Effect Size (Cohen's d) [2]: 0.22
PANSS negative symptoms scale sub-score, Diff in MMRM LSM (SE), pimavanserin − placebo [2]: −0.7
PANSS negative symptoms scale sub-score, Effect Size (Cohen's d) [2]: 0.21
PANSS total score, Diff in MMRM LSM (SE), pimavanserin − placebo [2]: −2.1
PANSS total score, Effect Size (Cohen's d) [2]: 0.17
CGI-S score, Week 6, Mean (SE) [3]: 3.8 (0.07)
PANSS total score, Change from Baseline to Week 6, Mean (SE) [3]: −15.3 (0.93)
PANSS total score, Week 6, Mean (SE) [3]: 72.7 (1.04)
Positive or negative symptoms, difference between treatment groups (North America): No significant differences
Clinical Global Impressions-Severity, LS Mean Change at Week 6 (North America subgroup): −0.7
PANSS Total Score, LS Mean Change at Week 6 (North America subgroup): −14.2
Clinical Global Impressions-Severity, Cohen's d Effect Size (North America subgroup, Week 6): −0.144
Clinical Global Impressions-Severity, LS Mean (SE) Difference (North America subgroup, Week 6): 0.1 (0.15)
PANSS Total Score, Cohen's d Effect Size (North America subgroup, Week 6): −0.229
PANSS Total Score, LS Mean (SE) Difference (North America subgroup, Week 6): 2.6 (2.74)
PANSS Total, LSM Change from Baseline at W6 (Sensitivity: MI in FAS, ANCOVA): −15.3
PANSS Total, Effect Size [4]: 0.16
PANSS Total, Treatment group Comparison (PIM-PBO) LSM [4]: −1.9
PANSS Total, LSM Change from Baseline at W6 (Sensitivity: MI in RAND, ANCOVA): −15.2
PANSS Total, Effect Size [5]: 0.15
PANSS Total, Treatment group Comparison (PIM-PBO) LSM [5]: −1.9
PANSS Total, LSM Change from Baseline at W6 (Sensitivity: OC ANCOVA): −15.3
PANSS Total, Effect Size (Sensitivity: OC ANCOVA, W6): 0.16
PANSS Total, Treatment group Comparison (PIM-PBO) LSM (Sensitivity: OC ANCOVA, W6): −1.9
PANSS Total, LSM Change from Baseline at W6 (Sensitivity: OC in PP, MMRM): −15.6
PANSS Total, Effect Size [6]: 0.19
PANSS Total, Treatment group Comparison (PIM-PBO) LSM [6]: −2.3

— patent US20220288048A1, “PIMAVANSERIN FOR TREATING SCHIZOPHRENIA OR FOR TREATING PSYCHOSIS SECONDARY TO NEURODEGENERATIVE DISORDERS OR DEPRESSIVE DISORDER” (ACADIA Pharmaceuticals Inc., priority 2019, published 2022)
